Laboratory results published in patent US20200123422A1, “Photocurable Adhesive Sheet, Image Display Device Constituent Laminate, Image Display Device Production Method and Method for Preventing Corrosion of Conductive Member” (Mitsubishi Chemical Corporation, priority 2017, published 2020).
In brackets after ≈: the same amount, converted by molar mass.

Key:
[1] = Absorption coefficient at a wavelength of 365 nm; type: physicochemical; settings: at 365 nm
From the text: The absorption coefficient can be determined by the following formula.
α365: absorption coefficient at a wavelength of 365 nm [mL/(g·cm)]
A365: absorbance at a wavelength of 365 nm
c: solution concentration [g/mL]
d: optical path length (of quartz cell) [cm]
In addition, when calculating the absorption coefficient, an absorbance converted from the measurement result of the transmittance may also be used.
T365: light transmittance at a wavelength of 365 nm [%]

Aqueous solubility = type: physicochemical
Experimental: From such a viewpoint, the metal corrosion inhibitor preferably has an aqueous solubility at 25° C. of 20 g/L or more, more preferably 50 g/L or more, particularly preferably 100 g/L or more.

Structure (SMILES)	absorption coefficient [1] [mL/g/cm]	aqueous solubility (Aqueous solubility)	solubility (Aqueous solubility; water, 25 °C) [mg/mL]
c1c[nH]nn1 [Example D-1, 1,2,3-triazole]	0.3	> 1,000 g/L	–
c1nc[nH]n1 [Example D-2, 1,2,4-triazole]	0.3	> 1,000 g/L	–
c1ccc2[nH]nnc2c1 [Example D-3, 1,2,3-benzotriazole]	0.8	20 g/L (≈ 168 mM)	–
Sc1nnc(S)s1 [Example D-4, 2,5-dimercapto-1,3,4-thiadiazole, reference compound]	90	–	20 (≈ 133 mM)
S=c1[nH]c2ccccc2s1 [Example D-5, mercaptobenzothiazole, reference compound]	65	0.3 g/L (≈ 1.79 mM)	–
